Source: patent publication US9181305B2, “Exendin-4 peptide analogues” (SANOFI, priority 2012, dated 2015)

Assays:
physchem = format: physicochemical
Protocol: Prior to the testing of solubility and stability of a peptide batch, its content was determined. Therefore, two parameters were investigated, its purity (HPLC-UV) and the amount of salt load of the batch (ion chromatography). Since synthesized peptides contain primarily trifluoracetate anions, only anion chromatography was performed. The content was then calculated based on the assumption that peptide-related impurities are detected at the same UV-absorption rate as the target peptide, as well as that cations are not present in the sample.
Therefore, solutions from solid samples were prepared in different buffer systems with a concentration of 1.0 mg/mL compound based on the previously determined content. HPLC-UV was performed after 2 h of gentle agitation from the supernatant, which was obtained by 20 min of centrifugation at 4000 rpm. […] This analysis also served as t0 for the stability testing.
Instrument: Agilent 1100, column: X-Bridge C18 3.5 μm 2.1×150 mm (Waters), eluent: A: H20+500 ppm TFA/B: Methanol, flow: 0.55 ml/min, gradient: 0-5 min: 10-60% B; 5-15 min: 60-99% B; detection: 214 nm.

[1] = tested on: female diet-induced obese C57BL/6NCrl mice; experiment: Single subcutaneous treatment, blood glucose in diet-induced obese mice; format: in vivo; settings: single s.c. 100 μg/kg, fed DIO mice (9 months on high-fat diet)
Protocol: Female C57BL/6NCrl mice were housed in groups (n=8) and had ad-libitum access to high-fat diet and water. Initial blood samples were taken just before administration (s.c.) of vehicle (phosphate buffer solution) or the exendin-4 analogue (e.g. SEQ ID NO: (7)) (100 μg/kg in phosphate buffer) in fed DIO mice. The volume of administration was 5 mL/kg. The animals had access to high-fat diet and water during the experiment, food consumption was determined at all time points for blood sampling. Blood glucose levels were measured at t=0.5 h, t=1 h, t=2 h, t=4 h, t=6 h, t=8 h, and t=24 h. Blood sampling was performed by tail incision without anaesthesia. Statistical analyses were performed with Everstat 6.0 by repeated measures two-way ANOVA and Dunnetts post-hoc analyses. Differences were considered statistically significant at the p<0.05 level.

female NMRI-mice [2] = experiment: Gastric emptying and intestinal passage in mice; format: in vivo; settings: 0.02 mg/kg s.c., 30 min prior to coloured bolus; p<0.0001
Protocol: Female NMRI-mice of a body weight between 20 and 30 g were used. Mice were adapted to housing conditions for at least one week. Mice were overnight fasted, while water remained available all the time. On the study day, mice were weighed, single-caged and allowed access to 500 mg of feed for 30 min, while water was removed. At the end of the 30 min feeding period, remaining feed was removed and weighed. 60 min later, a coloured, non-caloric bolus was instilled via gavage into the stomach. The test product or its vehicle in the control group was administered subcutaneously, to reach Cmax when coloured bolus was administered. After another 30 min, the animals were sacrificed and the stomach and the small intestine prepared. The filled stomach was weighed, emptied, carefully cleaned and dried and reweighed. The calculated stomach content indicated the degree of gastric emptying. The small intestine was straightened without force and measured in length. Then the distance from the gastric beginning of the gut to the tip of the farthest travelled intestinal content bolus was measured. The intestinal passage was given as relation in percent of the latter distance and the total length of the small intestine. Statistical analyses were performed with Everstat 6.0 by Student's T-Test. Differences were considered statistically significant at the p<0.05 level. […]

[3] = biological target: T1, human GLP-1 receptor (hGLP-1 R) (Homo sapiens, UniProt P43220); experiment: cAMP response (HTRF) of HEK-293 cells stably expressing human GLP-1 receptor; format: cell-based; settings: HEK-293 cells expressing human GLP-1 receptor, cAMP formation
T1 construct: expressed in transfected cells; host or cells: HEK-293
T1 sequence (P43220 24-463): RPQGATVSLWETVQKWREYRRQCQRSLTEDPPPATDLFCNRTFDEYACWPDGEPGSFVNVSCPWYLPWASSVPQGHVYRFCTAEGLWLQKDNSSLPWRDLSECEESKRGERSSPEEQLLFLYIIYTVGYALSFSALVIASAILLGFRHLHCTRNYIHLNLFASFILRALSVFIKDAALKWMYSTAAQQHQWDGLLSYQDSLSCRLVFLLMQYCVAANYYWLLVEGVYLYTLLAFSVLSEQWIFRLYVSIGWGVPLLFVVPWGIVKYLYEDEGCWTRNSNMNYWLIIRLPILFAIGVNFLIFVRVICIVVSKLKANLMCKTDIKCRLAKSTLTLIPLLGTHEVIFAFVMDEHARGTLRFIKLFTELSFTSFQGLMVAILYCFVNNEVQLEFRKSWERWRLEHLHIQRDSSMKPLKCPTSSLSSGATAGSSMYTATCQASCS
In short: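 Detached HEK-293 cells stably expressing the receptor were suspended in HBSS with 20 mM HEPES, 0.1% BSA and 2 mM IBMX. Test compound was added for 30 min at room temperature, and cellular cAMP was quantified by HTRF.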

female NMRI-mice [4] = experiment: Automated assessment of feed intake in mice (22 hours); format: in vivo
Protocol: Female NMRI-mice of a body weight between 20 and 30 g were used. Mice were adapted to housing conditions for at least one week and for at least one day single-caged in the assessment equipment, when basal data were recorded simultaneously. On the study day, test product was administered subcutaneously close to the lights-off phase (12 h lights off) and assessment of feed consumption was directly started afterwards. Assessment included continued monitoring (every 30 min) over 22 hours. Repetition of this procedure over several days was possible. Restriction of assessment to 22 hours was for practical reason to allow for reweighing of animals, refilling of feed and water and drug administration between procedures. Results could be assessed as cumulated data over 22 hours or differentiated to 30 min intervals. Statistical analyses were performed with Everstat 6.0 by two-way ANOVA on repeated measures and Dunnetts post-hoc analyses. Differences were considered statistically significant at the p<0.05 level. Fed female NMRI-mice, weighing on average 27 g, were administered 0.01 or 0.1 mg/kg of SEQ ID NO: (7) or phosphate buffered saline (vehicle control) subcutaneously, directly prior to start of feeding monitoring. Lights-off phase (dark phase) started 4 hours later.

**Q.** For `CCCCCCCCCCCCCCCC(=O)N[C@@H](CCC(=O)NCCCC[C@H](NC(=O)[C@H](CO)NC(=O)[C@@H]1CCCN1C(=O)[C@@H]1CCCN1C(=O)[C@@H]1CCCN1C(=O)[C@H](C)NC(=O)CNC(=O)[C@H](CO)NC(=O)[C@H](CO)NC(=O)[C@@H]1CCCN1C(=O)CNC(=O)CNC(=O)[C@H](CC(N)=O)NC(=O)[C@H](CCCCN)NC(=O)[C@H](CC(C)C)NC(=O)[C@H](Cc1c[nH]c2ccccc12)NC(=O)[C@H](CCC(=O)O)NC(=O)[C@@H](NC(=O)[C@H](Cc1ccccc1)NC(=O)[C@H](CC(=O)O)NC(=O)[C@H](CCC(N)=O)NC(=O)[C@H](C)NC(=O)[C@H](CCCNC(=N)N)NC(=O)[C@H](CCCNC(=N)N)NC(=O)[C@H](CO)NC(=O)[C@H](CC(=O)O)NC(=O)[C@H](CCSC)NC(=O)[C@H](CCC(N)=O)NC(=O)[C@H](CCCCN)NC(=O)[C@H](CO)NC(=O)[C@H](CC(C)C)NC(=O)[C@H](CC(=O)O)NC(=O)[C@H](CO)NC(=O)[C@@H](NC(=O)[C@H](Cc1ccccc1)NC(=O)[C@@H](NC(=O)CNC(=O)[C@H](CCC(N)=O)NC(=O)[C@@H](CO)NC(=O)[C@@H](N)Cc1c[nH]cn1)[C@@H](C)O)[C@@H](C)O)[C@@H](C)CC)C(N)=O)C(=O)O` [(7)], which solubility at 2 h (physchem; pH 4.5) is on record?
**A.** > 1000 µg/mL

**Q.** What about the solubility at 2 h (physchem; pH 7.4) of the same compound?
**A.** > 1000 µg/mL

**Q.** And the “blood glucose over 24 h compared to vehicle-treated control animals” value [1]?
**A.** significantly decreased

**Q.** And the “reduction of intestinal passage” value (female NMRI-mice [2])?
**A.** 54%

**Q.** What about the EC50 [3] of the same compound?
**A.** 5.2 pM

**Q.** And the “reduction of feed intake at the end of the study (22 hours)” value (female NMRI-mice [4]; 0.01 mg/kg s.c., p=0.0027)?
**A.** 17%

**Q.** What about the “reduction of feed intake at the end of the study (22 hours)” value (female NMRI-mice [4]; 0.1 mg/kg s.c., p<0.0001) of the same compound?
**A.** 37%
